Results reported in the supplement of paper PMC10307832.

Key:
Experiment in all cases: relative viability (nuclei count vs DMSO), 5 days (fraction); higher = more cells survive
Bortezomib + Tozasertib = compound: CC(C)C[C@H](NC(=O)[C@H](Cc1ccccc1)NC(=O)c1cnccn1)B(O)O [Bortezomib] + Cc1cc(Nc2cc(N3CCN(C)CC3)nc(Sc3ccc(NC(=O)C4CC4)cc3)n2)n[nH]1 [Tozasertib] (partner 0.1 µM)
In short: (§1)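 Relative viability is defined as nuclei in treated wells over nuclei in vehicle wells. Duplicate plates were run and medians reported. Lung cancer cell lines in 1536-well plates were dosed by pin tool one day after seeding, with one drug or with a fixed anchor-drug dose plus five library-drug doses (not always all listed) in √10 steps, and nuclei were counted after 5 days.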

Bortezomib + Olaparib = compound: CC(C)C[C@H](NC(=O)[C@H](Cc1ccccc1)NC(=O)c1cnccn1)B(O)O [Bortezomib] + O=C(c1cc(Cc2n[nH]c(=O)c3ccccc23)ccc1F)N1CCN(C(=O)C2CC2)CC1 [Olaparib] (partner 8 µM)
In short: as §1

Obatoclax + Alpelisib = compound: COC1=CC(c2cc3ccccc3[nH]2)=N/C1=C\c1[nH]c(C)cc1C [Obatoclax] + Cc1nc(NC(=O)N2CCC[C@H]2C(N)=O)sc1-c1ccnc(C(C)(C)C(F)(F)F)c1 [Alpelisib] (partner 2 µM)
In short: as §1

Obatoclax + Dasatinib = compound: COC1=CC(c2cc3ccccc3[nH]2)=N/C1=C\c1[nH]c(C)cc1C [Obatoclax] + Cc1nc(Nc2ncc(C(=O)Nc3c(C)cccc3Cl)s2)cc(N2CCN(CCO)CC2)n1 [Dasatinib] (partner 0.075 µM)
In short: as §1

| Cell Line | relative viability (Bortezomib + Tozasertib; first compound 0.0002 µM) | relative viability (Bortezomib + Tozasertib; first compound 0.000632 µM) | relative viability (Bortezomib + Tozasertib; first compound 0.002 µM) | relative viability (Bortezomib + Tozasertib; first compound 0.006325 µM) | relative viability (Bortezomib + Tozasertib; first compound 0.02 µM) | relative viability (Bortezomib + Olaparib; first compound 0.0002 µM) | relative viability (Bortezomib + Olaparib; first compound 0.000632 µM) | relative viability (Bortezomib + Olaparib; first compound 0.002 µM) | relative viability (Bortezomib + Olaparib; first compound 0.006325 µM) | relative viability (Bortezomib + Olaparib; first compound 0.02 µM) | relative viability (Obatoclax + Alpelisib; first compound 0.01 µM) | relative viability (Obatoclax + Alpelisib; first compound 0.03162 µM) | relative viability (Obatoclax + Alpelisib; first compound 0.1 µM) | relative viability (Obatoclax + Alpelisib; first compound 0.3162 µM) | relative viability (Obatoclax + Alpelisib; first compound 1 µM) | relative viability (Obatoclax + Dasatinib; first compound 0.01 µM) | relative viability (Obatoclax + Dasatinib; first compound 0.03162 µM) | relative viability (Obatoclax + Dasatinib; first compound 0.3162 µM) | relative viability (Obatoclax + Dasatinib; first compound 1 µM) | relative viability (Obatoclax + Dasatinib; first compound 0.1 µM) |
| --- | --- | --- | --- | --- | --- | --- | --- | --- | --- | --- | --- | --- | --- | --- | --- | --- | --- | --- | --- | --- |
| NCI-H2347 | 0.522 | 0.676 | 0.471 | 0.195 | 0.166 | 0.413 | 0.572 | 0.338 | 0.245 | 0.249 | 1.02 | 0.994 | 0.841 | 1.01 | 0.93 | 0.305 | 0.281 | 0.308 | 0.324 |  |
| NCI-H2405 | 0.715 | 0.804 | 0.629 | 0.23 | 0.153 | 0.859 | 0.834 | 0.334 | 0.199 | 0.161 | 0.806 | 0.891 |  | 0.777 | 0.711 | 0.218 | 0.197 | 0.205 | 0.22 |  |
| NCI-H3122 | 0.388 | 0.43 | 0.266 | 0.153 | 0.088 | 0.557 | 0.621 | 0.604 | 0.243 | 0.0898 | 0.787 | 0.812 | 0.792 | 0.707 | 0.751 | 0.925 | 0.843 | 0.674 | 0.766 | 0.798 |
| PC-3 [JPC-3] | 0.827 | 0.898 | 0.442 | 0.169 | 0.125 | 1.08 | 1.14 | 0.451 | 0.236 | 0.216 | 0.968 | 1.01 | 0.999 | 0.975 | 1.1 | 0.963 | 1.02 | 1.01 | 0.943 | 1.01 |
| PC-14 | 0.415 | 0.612 | 0.562 | 0.113 | 0.0502 | 0.239 | 0.282 | 0.323 | 0.0333 | 0.0494 | 0.875 | 0.92 | 0.892 | 0.775 | 0.632 | 0.285 | 0.286 | 0.0723 | 0.0415 | 0.225 |
| RERF-LC-KJ | 0.523 | 0.436 | 0.559 | 0.208 | 0.189 | 0.803 | 1.02 | 0.728 | 0.286 | 0.199 | 0.754 | 0.811 | 0.805 | 0.803 | 0.775 | 0.796 | 0.894 | 0.745 | 0.513 | 0.701 |
| SK-LU-1 | 0.284 | 0.362 | 0.282 | 0.102 | 0.1 | 0.477 | 0.442 | 0.462 | 0.198 | 0.149 | 0.825 | 0.984 | 0.779 | 0.355 | 0.29 | 0.184 | 0.19 | 0.157 | 0.141 | 0.141 |
| SK-MES-1 | 0.935 | 0.933 | 0.882 | 0.315 | 0.127 | 0.649 | 0.839 | 0.521 | 0.171 | 0.159 | 0.828 | 0.785 | 1.01 | 0.824 | 0.645 | 0.356 | 0.48 | 0.362 | 0.267 | 0.394 |
| SW 1573 | 0.168 | 0.172 | 0.165 | 0.0802 | 0.0573 | 0.421 | 0.408 | 0.319 | 0.0537 | 0.0441 | 0.789 | 0.701 | 0.946 | 0.672 | 0.556 | 0.413 | 0.454 | 0.134 | 0.136 | 0.53 |
| UMC-11 | 0.19 | 0.208 | 0.197 | 0.229 | 0.204 | 0.441 | 0.398 | 0.348 | 0.189 | 0.133 | 0.954 | 0.892 | 1.03 | 0.584 | 0.442 | 0.443 | 0.529 | 0.372 | 0.278 | 0.468 |
